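All cell lines were grown in 96-well plates and treated with compound for 48 hours. GI50 marks 50% less growth. TGI is the concentration that stops growth completely.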
Assays:
Assay in all cases: inhibition of tumour cell growth, NCI panel, 48 h
HT29 colon = test system: HT29 colon
U251 CNS = test system: U251 CNS
OVCAR-4 ovarian = test system: OVCAR-4 ovarian
NCI-H23 lung = test system: NCI-H23 lung
UO-31 renal = test system: UO-31 renal
SK-MEL-28 melanoma = test system: SK-MEL-28 melanoma
SK-MEL-5 melanoma = test system: SK-MEL-5 melanoma
TK-10 renal = test system: TK-10 renal
SR leukemia = test system: SR leukemia
NCI/ADR-RES ovarian = test system: NCI/ADR-RES ovarian
SK-MEL-2 melanoma = test system: SK-MEL-2 melanoma
NCI-H226 lung = test system: NCI-H226 lung
HCT-15 colon = test system: HCT-15 colon
OVCAR-3 ovarian = test system: OVCAR-3 ovarian
MOLT-4 leukemia = test system: MOLT-4 leukemia
UACC-62 melanoma = test system: UACC-62 melanoma
T-47D breast = test system: T-47D breast
SF-295 CNS = test system: SF-295 CNS
MDA-MB-435 = test system: MDA-MB-435
OVCAR-5 ovarian = test system: OVCAR-5 ovarian
KM12 colon = test system: KM12 colon
786-0 renal = test system: 786-0 renal
SW-620 colon = test system: SW-620 colon
PC-3 prostate = test system: PC-3 prostate
CAKI-1 renal = test system: CAKI-1 renal
BT-549 breast = test system: BT-549 breast
SF-539 CNS = test system: SF-539 CNS
SK-OV-3 ovarian = test system: SK-OV-3 ovarian
A549 NSCLC = test system: A549 NSCLC
IGROV1 ovarian = test system: IGROV1 ovarian
A498 renal = test system: A498 renal
HS 578T breast = test system: HS 578T breast
SN12C renal = test system: SN12C renal
MALME-3M melanoma = test system: MALME-3M melanoma
MDA-MB-231 breast = test system: MDA-MB-231 breast
NCI-H460 lung = test system: NCI-H460 lung
HL-60(TB) leukemia = test system: HL-60(TB) leukemia
NCI-H522 lung = test system: NCI-H522 lung
ACHN renal = test system: ACHN renal
DU-145 prostate = test system: DU-145 prostate
HOP-62 NSCLC = test system: HOP-62 NSCLC
MCF7 breast = test system: MCF7 breast
HCC-2998 colon = test system: HCC-2998 colon
RXF 393 renal = test system: RXF 393 renal
SF-268 CNS = test system: SF-268 CNS
SNB-75 CNS = test system: SNB-75 CNS
UACC-257 melanoma = test system: UACC-257 melanoma
M14 melanoma = test system: M14 melanoma
HOP-92 NSCLC = test system: HOP-92 NSCLC
SNB-19 CNS = test system: SNB-19 CNS
COLO 205 colon = test system: COLO 205 colon
OVCAR-8 ovarian = test system: OVCAR-8 ovarian
LOX IMVI melanoma = test system: LOX IMVI melanoma
CCRF-CEM leukemia = test system: CCRF-CEM leukemia
EKVX NSCLC = test system: EKVX NSCLC
K-562 leukemia = test system: K-562 leukemia
HCT-116 colon = test system: HCT-116 colon

Question: Which GI50 (HT29 colon) does the source give for O=C(O)CCCN1C(=O)/C(=C/C(Cl)=C/c2ccccc2)SC1=S here?
Answer: 2.85 µM

Question: What about the TGI (HT29 colon) of the same compound?
Answer: 10.6 µM

Question: And the GI50 (U251 CNS)?
Answer: 1.8 µM

Question: What about the TGI (U251 CNS) of the same compound?
Answer: 4.63 µM

Question: And the GI50 (OVCAR-4 ovarian)?
Answer: 2.77 µM

Question: And the TGI (OVCAR-4 ovarian)?
Answer: 14.3 µM

Question: And the GI50 (NCI-H23 lung)?
Answer: 2.34 µM

Question: What about the TGI (NCI-H23 lung) of the same compound?
Answer: 6.27 µM

Question: What about the GI50 (UO-31 renal) of the same compound?
Answer: 1.07 µM

Question: And the TGI (UO-31 renal)?
Answer: 2.48 µM

Question: And the GI50 (SK-MEL-28 melanoma)?
Answer: 1.66 µM

Question: What about the TGI (SK-MEL-28 melanoma) of the same compound?
Answer: 3.47 µM

Question: What about the GI50 (SK-MEL-5 melanoma) of the same compound?
Answer: 1.72 µM

Question: And the TGI (SK-MEL-5 melanoma)?
Answer: 3.16 µM

Question: And the GI50 (TK-10 renal)?
Answer: 3.73 µM

Question: And the TGI (TK-10 renal)?
Answer: 9.6 µM

Question: And the GI50 (SR leukemia)?
Answer: 0.719 µM

Question: And the TGI (SR leukemia)?
Answer: 15.3 µM

Question: What about the GI50 (NCI/ADR-RES ovarian) of the same compound?
Answer: 2.39 µM

Question: What about the TGI (NCI/ADR-RES ovarian) of the same compound?
Answer: 9.35 µM

Question: And the GI50 (SK-MEL-2 melanoma)?
Answer: 2.47 µM

Question: And the TGI (SK-MEL-2 melanoma)?
Answer: 7.61 µM

Question: What about the GI50 (NCI-H226 lung) of the same compound?
Answer: 2.98 µM

Question: What about the TGI (NCI-H226 lung) of the same compound?
Answer: 18.4 µM

Question: What about the GI50 (HCT-15 colon) of the same compound?
Answer: 1.03 µM

Question: What about the TGI (HCT-15 colon) of the same compound?
Answer: 6.06 µM

Question: What about the GI50 (OVCAR-3 ovarian) of the same compound?
Answer: 1.39 µM

Question: What about the TGI (OVCAR-3 ovarian) of the same compound?
Answer: 3.21 µM

Question: What about the GI50 (MOLT-4 leukemia) of the same compound?
Answer: 0.591 µM

Question: And the TGI (MOLT-4 leukemia)?
Answer: 11.9 µM

Question: And the GI50 (UACC-62 melanoma)?
Answer: 1.47 µM

Question: What about the TGI (UACC-62 melanoma) of the same compound?
Answer: 3.62 µM

Question: And the GI50 (T-47D breast)?
Answer: 1.89 µM

Question: And the TGI (T-47D breast)?
Answer: 5.38 µM

Question: What about the GI50 (SF-295 CNS) of the same compound?
Answer: 2.57 µM

Question: What about the TGI (SF-295 CNS) of the same compound?
Answer: 7.16 µM

Question: What about the GI50 (MDA-MB-435) of the same compound?
Answer: 1.94 µM

Question: And the TGI (MDA-MB-435)?
Answer: 5.96 µM

Question: What about the GI50 (OVCAR-5 ovarian) of the same compound?
Answer: 2.48 µM

Question: And the TGI (OVCAR-5 ovarian)?
Answer: 5.78 µM

Question: What about the GI50 (KM12 colon) of the same compound?
Answer: 1.47 µM

Question: And the TGI (KM12 colon)?
Answer: 3.54 µM

Question: What about the GI50 (786-0 renal) of the same compound?
Answer: 2.33 µM

Question: And the TGI (786-0 renal)?
Answer: 6.39 µM

Question: What about the GI50 (SW-620 colon) of the same compound?
Answer: 1.3 µM

Question: What about the TGI (SW-620 colon) of the same compound?
Answer: 3.86 µM

Question: And the GI50 (PC-3 prostate)?
Answer: 2.23 µM

Question: What about the TGI (PC-3 prostate) of the same compound?
Answer: 10.3 µM

Question: What about the GI50 (CAKI-1 renal) of the same compound?
Answer: 1.66 µM

Question: And the TGI (CAKI-1 renal)?
Answer: 3.76 µM

Question: And the GI50 (BT-549 breast)?
Answer: 1.91 µM

Question: And the TGI (BT-549 breast)?
Answer: 4.8 µM

Question: And the GI50 (SF-539 CNS)?
Answer: 1.98 µM

Question: What about the TGI (SF-539 CNS) of the same compound?
Answer: 4.85 µM

Question: And the GI50 (SK-OV-3 ovarian)?
Answer: 6.24 µM

Question: What about the TGI (SK-OV-3 ovarian) of the same compound?
Answer: 19 µM

Question: And the GI50 (A549 NSCLC)?
Answer: 3.02 µM

Question: And the TGI (A549 NSCLC)?
Answer: 11.9 µM

Question: And the GI50 (IGROV1 ovarian)?
Answer: 2.07 µM

Question: And the TGI (IGROV1 ovarian)?
Answer: 6.04 µM

Question: And the GI50 (A498 renal)?
Answer: 1.96 µM

Question: What about the TGI (A498 renal) of the same compound?
Answer: 3.57 µM

Question: And the GI50 (HS 578T breast)?
Answer: 2.73 µM

Question: What about the TGI (HS 578T breast) of the same compound?
Answer: 10.6 µM

Question: What about the GI50 (SN12C renal) of the same compound?
Answer: 2.05 µM

Question: And the TGI (SN12C renal)?
Answer: 6.79 µM

Question: What about the GI50 (MALME-3M melanoma) of the same compound?
Answer: 2.09 µM

Question: And the TGI (MALME-3M melanoma)?
Answer: 5.24 µM

Question: And the GI50 (MDA-MB-231 breast)?
Answer: 3.17 µM

Question: What about the TGI (MDA-MB-231 breast) of the same compound?
Answer: 10.7 µM

Question: What about the GI50 (NCI-H460 lung) of the same compound?
Answer: 2.47 µM

Question: What about the TGI (NCI-H460 lung) of the same compound?
Answer: 6.76 µM

Question: What about the GI50 (HL-60(TB) leukemia) of the same compound?
Answer: 0.551 µM

Question: And the TGI (HL-60(TB) leukemia)?
Answer: 10.5 µM

Question: And the GI50 (NCI-H522 lung)?
Answer: 2.21 µM

Question: What about the TGI (NCI-H522 lung) of the same compound?
Answer: 6.62 µM

Question: And the GI50 (ACHN renal)?
Answer: 1.2 µM

Question: What about the TGI (ACHN renal) of the same compound?
Answer: 4.4 µM

Question: And the GI50 (DU-145 prostate)?
Answer: 1.79 µM

Question: What about the TGI (DU-145 prostate) of the same compound?
Answer: 4.39 µM

Question: And the GI50 (HOP-62 NSCLC)?
Answer: 2.94 µM

Question: And the TGI (HOP-62 NSCLC)?
Answer: 10.5 µM

Question: What about the GI50 (MCF7 breast) of the same compound?
Answer: 0.6 µM

Question: What about the TGI (MCF7 breast) of the same compound?
Answer: 11.4 µM

Question: What about the GI50 (HCC-2998 colon) of the same compound?
Answer: 1.83 µM

Question: What about the TGI (HCC-2998 colon) of the same compound?
Answer: 3.41 µM

Question: And the GI50 (RXF 393 renal)?
Answer: 1.36 µM

Question: What about the TGI (RXF 393 renal) of the same compound?
Answer: 2.78 µM

Question: What about the GI50 (SF-268 CNS) of the same compound?
Answer: 2.5 µM

Question: And the TGI (SF-268 CNS)?
Answer: 7.41 µM

Question: And the GI50 (SNB-75 CNS)?
Answer: 1.23 µM

Question: What about the TGI (SNB-75 CNS) of the same compound?
Answer: 4.33 µM

Question: And the GI50 (UACC-257 melanoma)?
Answer: 1.75 µM

Question: What about the TGI (UACC-257 melanoma) of the same compound?
Answer: 6.8 µM

Question: What about the GI50 (M14 melanoma) of the same compound?
Answer: 1.81 µM

Question: And the TGI (M14 melanoma)?
Answer: 5.12 µM

Question: What about the GI50 (HOP-92 NSCLC) of the same compound?
Answer: 3.17 µM

Question: What about the TGI (HOP-92 NSCLC) of the same compound?
Answer: 9.78 µM

Question: What about the GI50 (SNB-19 CNS) of the same compound?
Answer: 2.78 µM

Question: And the TGI (SNB-19 CNS)?
Answer: 10.9 µM

Question: And the GI50 (COLO 205 colon)?
Answer: 1.9 µM

Question: And the TGI (COLO 205 colon)?
Answer: 4.49 µM

Question: What about the GI50 (OVCAR-8 ovarian) of the same compound?
Answer: 1.48 µM

Question: And the TGI (OVCAR-8 ovarian)?
Answer: 13.8 µM

Question: And the GI50 (LOX IMVI melanoma)?
Answer: 0.383 µM

Question: And the TGI (LOX IMVI melanoma)?
Answer: 1.38 µM

Question: And the GI50 (CCRF-CEM leukemia)?
Answer: 0.786 µM

Question: And the TGI (CCRF-CEM leukemia)?
Answer: 10.2 µM

Question: And the GI50 (EKVX NSCLC)?
Answer: 2.21 µM

Question: What about the TGI (EKVX NSCLC) of the same compound?
Answer: 5.91 µM

Question: And the GI50 (K-562 leukemia)?
Answer: 1.52 µM

Question: What about the TGI (K-562 leukemia) of the same compound?
Answer: 16.3 µM

Question: What about the GI50 (HCT-116 colon) of the same compound?
Answer: 1.13 µM

Question: And the TGI (HCT-116 colon)?
Answer: 4 µM

Source: PubChem BioAssay (NCI)
